What was measured:
Male C57bl6 mice = assay: CCl4-induced liver fibrosis: histology (Metavir score); assay type: in vivo
Procedure: Liver fibrosis was induced in Male C57bl6 mice (Charles River, l'Arbresle, France) by injection of carbon tetrachloride (CCl4). The C57bl6 mice weighed 22-25 g and were maintained in laboratory conditions for 1 week before experiment. Animals were housed 5 per cage with food and water available ad libitum.
The effectiveness of compound 34 (specific ligand of PPARg) as compared to JWH-133 (anti-fibrogenic agent) was evaluated. Compound 34 was administered orally in combination with CCl4 injections for ca. 5 weeks. Compound 34 was dosed daily at 200 uL of a 30 mM solution. JWH-133 was administered daily via intraperitoneal injections at 3 mg/kg (dose volume=100 uL). The model of liver fibrosis is induced by chronic exposure to increased dosages of CCl4 for 5 weeks. The first week, mice received an intraperitoneal injection of CCl4, resuspended in olive oil, at the dosage of 80 μl/kg of mice body weight twice a week. At week 2, 3 injections of CCl4 at the dosage of 160 μl/kg were performed every two days. At week 3, 3 injections of CCl4 at the dosage of 240 μl/kg were performed every two days. At week 4, 3 injections of CCl4 at the dosage of 320 μl/kg were performed every two days. Mice were euthanized, at week 5, 3 days after the last CCl4 administration.
The formalin-fixed liver tissue was processed and 5 μm thick paraffin sections were stained with hematoxylin and eosin (H&E) and Picrosirius red staining (specific coloration for collagen in tissue sections) to evaluate the degree of fibrosis in the liver. Each section was analyzed blindly by 3 different experimenters for the quantification of the degree of fibrosis for each lobe of the liver (5) using the Metavir score (see FIG. 2A for Metavir Score chart). The photographs seen in FIG. 2B were obtained with a 20× objective.

IL-13 = assay: DSS chronic colitis (Ex. 7): Western blot, IL-13; assay type: in vivo, mice; conditions: percentage of optical density vs control group, normalized with GAPDH; DSS 189.5%±28.71%
Procedure: 0.5 cm of frozen colonic samples were cut and mechanically homogenized in RIPA Buffer containing 50 mMTrisHCl pH 7.6, 150 mMNaCl, 1.5 mM MgCl2, 5 mM EDTA, 1% Triton-X and 10% Glycerol, supplemented with 100 mM Sodium Fluoride (NaF), 2 mM Sodium Orthovanadate (Na3VO4), 10 mM Sodium Pyrophosphate (NaPPi), 1 mMphenylmethanesulphone (PMSF) and a classical protease-inhibitor cocktail containing 10 μg/mL Leupeptin and Aprotinin.
30 μg of protein for each sample were separated by PAGE and electroblotted. 100% pure Nitrocellulose membranes were incubated (according with a specific protocol for each antibody) with primary antibodies directed against TGF-β1, CTGF, α-SMA, Collagen-I and GAPDH (purchased from Abcam, Cambridge, UK; 1:1000 for 2 h at RT), and IL-13 (purchased from Antibodies online; 1:1000 for 2 h at RT) diluted in 5% non fat-milk in 0.1% TBS-t. […] Optical density of target bands was determined using a computer-assisted densitometer and the ImageJ public domain software (W. S., Rasband, ImageJ, U. S. National Institutes of Health, Bethesda, MD; http://rsb.info.nih.gov/ij/, 1997-2011). Tissue levels were expressed as units of Optical Density (OD) per quantity of total proteins, normalizing with internal control GAPDH and the results were expressed as percentage of control groups.

## COC(Cc1ccc(N)cc1)C(=O)O (racemic) [Compound 34, (±)-2-methoxy-3-(4′-aminophenyl) propionic acid]
Male C57bl6 mice; FIG. 3B
  decrease of the fibrotic score (adapted Metavir score) compared to untreated animals: 12.5%
Male C57bl6 mice; compound 34 30 mM 200 uL oral daily, JWH-133 3 mg/kg i.p. daily, CCl4 vehicle group 2.5±0.5
  mean Metavir score (FIG. 3A): 2.1±0.2
Male C57bl6 mice; result in words
  degree of fibrosis (Metavir): decrease in the degree of fibrosis from severe to moderate fibrosis
IL-13
  IL-13 expression level (Western blot): 88.88%±14.01%

Source: US12291494B2, “Methods of treating fibrosis” (Nogra Pharma Limited, priority 2012, dated 2025)
